Assay results from patent US20080306285A1, “Heat-Labile Prodrugs” (priority 2007, published 2008).
Read-outs that look alike come from different tables or passages of the source.

Legend:
[1] = Pharmacokinetics of THC aerosol by inhalation in Beagle dogs; assay type: in vivo; settings: for Cmax / Tmax / half-life: plasma (venous); for Cmax / Tmax / half-life / AUC(0-inf): 0.93 mg, inhalation 0.93 mg THC + 0.11 THCA, venous plasma THC; for Fraction of THC Emitted Dose in Exhalation: based on 924 μg THC emitted dose; for BA: inhalation vs IV; for THC in Exhaled Breath: 5 sec breath hold; for time of maximum arterial plasma concentration: arterial blood, FIG. 14; for time of venous plasma concentration peak: venous blood, FIG. 15
Protocol: A study was conducted in order to compare the pharmacokinetics (PK) of delivering THC by inhalation from a thermally labile prodrug to those of an intravenous (IV) bolus. A device consisting of a control electronics PC board, air-flow regulator, inhalation valve, air-flow meter, and indo-tracheal tube was used to generate and administer THC aerosol to Beagle dogs. Two safety mechanisms built into the device prevent harm to the test subject: one that closes the inhalation valve when the selected air volume is delivered to the test subject, and one that vents the system to ambient air if the circuit board loses control over the system (due to power failure, etc.).
The in vivo portion of the study was designed with a target THC emitted dose of 0.98 mg. Aerosol quality samples were captured prior to and immediately following animal dosing in a manner consistent with previous pre-PK development work and the animal dosing parameters. The emitted dose samples were collected on 2 μm Teflon filters, while the particle size samples were collected using an ACI fitted with glass fiber filters. After aerosol collection, the filters were stored in amber vials in a freezer prior to analysis. All results were within the acceptable range determined from a previous development study.
For the inhalation portion, four Beagle dogs (2 male/2 female) were exposed to THC aerosol by forced maneuver inhalation exposure. A breath hold of 5 sec was followed by exhalation into a Teflon filter. The filters were placed in vials for analysis using HPLC. Body weight, inhalation volume, exhalation volume, and quantity of THC in exhalation for each test subject are set forth in Table Three, below.
(§1) All blood samples measured 0.5 mL and were collected in plastic vials containing K2EDTA as the anticoagulant. The vials were placed on wet ice until centrifugation to recover the plasma. The plasma samples were analyzed for THC, THCA, and the major metabolite (11-nor-9-carboxy-Δ^9-tetrahydrocannabinol) of THC using a mass spectrometry method.
Immediately after simultaneous administration of the drug and the prodrug, blood samples were drawn from both the arterial and venous circulation of the test subjects. Arterial sampling was more frequent at the early time points and was stopped at 10 minutes, while venous sampling continued to 24 hours.
(§2) Non-compartmental modeling of the venous THC plasma concentrations was performed using WinNonlin™ (WinNonlin Professional Version 4.1, Pharsight Corp., Mountain View, Calif.). Characterization of the gamma (third) terminal linear phase for the inhalation and IV portions of the study allowed us to compare the inhalation pharmacokinetics to those of IV.

[2] = Pharmacokinetics of THC IV bolus in Beagle dogs; assay type: in vivo; settings: dog, venous plasma, 0.9 mg, IV injection 0.9 mg THC
Protocol: Two weeks after dosing by inhalation, the same dogs were given a 0.9 mL (adjusted to match the aerosol output measured in the pre- and post-dose aerosol quality testing) bolus IV injection of THC (1 mg/mL THC and sodium ascorbate) in 0.9% NaCl aqueous solution.
as §1, §2

[3] = oral dronabinol formulations of THC, cited from earlier work
[4] = Physical stability drop tests of THCA coatings; assay type: physicochemical; settings: up to 1.0 mg/cm^2 on stainless steel, after 6 months storage at various conditions
Excerpt: An advantage of THCA is that it is a solid that forms a physically stable film, as opposed to Δ^9-THC, which is a viscous oil whose coated films are subject to flow.

[5] = Aerosol particle size by Anderson Cascade Impactor; assay type: physicochemical; settings: THC aerosol from THCA film, 1 mg/cm^2, aerosol mass 1 mg, 28.3 L/min
Protocol: Particle size distribution is characterized by the mass median aerodynamic diameter (MMAD) and the geometric standard deviation (GSD). For thermal condensation aerosols, such as those disclosed herein and in our previous patent applications, particle size is governed by the competing mechanisms of condensation and Brownian aggregation.
All particle size experiments were conducted by vaporizing drug films into an 8-stage Anderson Cascade Impactor (ACI) fitted with a glass fiber filter. The ACI consists of several stages, with each successive stage having a smaller size cutoff. By extracting and determining the mass of drug deposited at each stage, it is possible to estimate the particle size distribution of the aerosol.
An air flow of 28.3 L/min was used to generate the aerosol and distribute it through the ACI. Each stage and filter was extracted with organic solvent and analyzed using HPLC. The MMAD and GSD were calculated from the quantity of aerosol on each stage. The MMAD for the THC aerosol (generated from THCA film, drug loading=1 mg/cm^2; aerosol mass=1 mg) was 2.2 μm and the GSD [84/16] was 2.2. In addition, the fine particle fraction (FPF, MMAD <5 μm) was over 95%. These values are well within the range normally accepted for effective pulmonary deposition.

[6] = Aerosolization of estradiol-t-BOC-Gly-Gly; assay type: physicochemical
Protocol: The prodrug, estradiol-t-BOC-Gly-Gly (shown in FIG. 12 and prepared as described above), was spray coated onto stainless steel test strips (1.347 mg; […] nominal film thickness). The test articles were placed in the screening device and heated by discharging a capacitor through the foils to thermally convert the prodrug back to estradiol and form a condensation aerosol. Tests were conducted on duplicate foils at each of three temperatures (325° C., 350° C., and 380° C.) determined by the discharge voltage of the capacitor. The aerosol was collected with a Teflon filter, and the trapped aerosol was extracted from the collection apparatus using organic solvent and analyzed using HPLC.
FIG. 17 is a bar graph 1700 showing percent estradiol in aerosol 1702 as a function of vaporization temperature 1704 (n=2). FIG. 18 is a bar graph 1800 showing percent prodrug in aerosol 1802 as a function of vaporization temperature 1804 (n=2).

[7] = FIG. 16, n=2
[8] = Beagle, dog, inhaled or intranasal, subject 101
[9] = Beagle, dog, inhaled or intranasal, subject 102
[10] = Beagle, dog, inhaled or intranasal, subject 103
[11] = Beagle, dog, inhaled or intranasal, subject 104
[12] = both sexes, Beagle, dog, inhaled or intranasal, mean of 4 dogs

SMILES: CCCCCc1cc(O)c2c(c1)OC(C)(C)[C@@H]1CCC(C)=C[C@@H]21 [THC, Δ^9-tetrahydrocannabinol]
- Cmax [1, 8]: 341 ng/mL
- Tmax [1, 8]: 3 min
- half-life [1, 8]: 21 min
- Cmax [1, 9]: 190 ng/mL
- Tmax [1, 9]: 2 min
- half-life [1, 9]: 32.5 min
- Cmax [1, 10]: 358 ng/mL
- Tmax [1, 10]: 2 min
- half-life [1, 10]: 22.7 min
- Cmax [1, 11]: 253 ng/mL
- Tmax [1, 11]: 2 min
- half-life [1, 11]: 55.8 min
- Fraction of THC Emitted Dose in Exhalation ([1]; subject 101): 2.8%
- Fraction of THC Emitted Dose in Exhalation ([1]; subject 102): 3.2%
- Fraction of THC Emitted Dose in Exhalation ([1]; subject 103): 2.4%
- Fraction of THC Emitted Dose in Exhalation ([1]; subject 104): 1.7%
- Cmax [1, 12]: 286 ng/mL
- Tmax [1, 12]: 2.3 min
- half-life [1, 12]: 33 min
- AUC(0-inf) ([1]; both sexes, Beagle, dog, venous plasma, inhaled or intranasal, mean of 4 dogs): 92.5 ng·h/mL
- bioavailability ([1]; both sexes, Beagle, dog, venous plasma, inhaled or intranasal, inhalation): 67%
- AUC(0-inf) ([1]; female, Beagle, dog, venous plasma, inhaled or intranasal, subject 103): 1140 ng·h/mL
- AUC(0-inf) ([1]; female, Beagle, dog, venous plasma, inhaled or intranasal, subject 104): 92.6 ng·h/mL
- difference in Tmax between THC and its prodrug Δ^9-THC-2-carboxylic acid ([1]; inhalation): 3 fold
- BA ([1]; mean of 4 dogs): 67.4%
- BA ([1]; subject 101): 59.7%
- BA ([1]; subject 102): 43.9%
- BA ([1]; subject 103): 84.5%
- BA ([1]; subject 104): 81.6%
- THC in Exhaled Breath ([1]; inhalation, subject 101 (M)): 26.2 µg
- THC in Exhaled Breath ([1]; inhalation, subject 102 (M)): 29.6 µg
- THC in Exhaled Breath ([1]; inhalation, subject 103 (F)): 22.3 µg
- THC in Exhaled Breath ([1]; inhalation, subject 104 (F)): 15.8 µg
- time of maximum arterial plasma concentration ([1]; inhalation): 90 s
- time of venous plasma concentration peak ([1]; inhalation): about 150 seconds
- AUC(0-inf) ([1]; male, Beagle, dog, venous plasma, inhaled or intranasal, subject 101): 99.4 ng·h/mL
- AUC(0-inf) ([1]; male, Beagle, dog, venous plasma, inhaled or intranasal, subject 102): 64.5 ng·h/mL
- AUC(0-inf) ([2]; both sexes, mean of 4 dogs): 142 ng·h/mL
- Cmax ([2]; both sexes, mean of 4 dogs): 1780 ng/mL
- Tmax ([2]; both sexes, mean of 4 dogs): 22.8 s
- half-life ([2]; both sexes, mean of 4 dogs): 50.8 min
- AUC(0-inf) ([2]; female, subject 103): 139 ng·h/mL
- Cmax ([2]; female, subject 103): 1410 ng/mL
- Tmax ([2]; female, subject 103): 15 s
- half-life ([2]; female, subject 103): 51.3 min
- AUC(0-inf) ([2]; female, subject 104): 118 ng·h/mL
- Cmax ([2]; female, subject 104): 1230 ng/mL
- Tmax ([2]; female, subject 104): 30 s
- half-life ([2]; female, subject 104): 36.6 min
- AUC(0-inf) ([2]; male, subject 101): 164 ng·h/mL
- Cmax ([2]; male, subject 101): 3770 ng/mL
- Tmax ([2]; male, subject 101): 15 s
- half-life ([2]; male, subject 101): 18.1 min
- AUC(0-inf) ([2]; male, subject 102): 146 ng·h/mL
- Cmax ([2]; male, subject 102): 697 ng/mL
- Tmax ([2]; male, subject 102): 30 s
- half-life ([2]; male, subject 102): 97.1 min
- bioavailability ([3]; typical): less than 50%
- Tmax [3]: up to 5 hours

SMILES: CCCCCc1cc2c(c(O)c1C(=O)O)C1C=C(C)CCC1C(C)(C)O2 (stereo not shown) [THCA, Δ^9-THC-2-carboxylic acid]
- physical stability of coating (drop tests) [4]: physically robust
- GSD [84/16] [5]: 2.2
- MMAD [5]: 2.2 μm
- fine particle fraction (FPF, MMAD <5 μm) [5]: over 95%
- absorption from the lung compared with THC ([1]; inhalation, FIGS. 14 and 15): substantially faster
- time of maximum arterial plasma concentration ([1]; inhalation): about 30 seconds
- time of venous plasma concentration peak ([1]; inhalation): about 50 seconds

SMILES: CC(C)(C)OC(=O)NCC(=O)NCC(=O)Oc1ccc2c(c1)CC[C@@H]1[C@@H]2CC[C@]2(C)[C@@H](O)CC[C@@H]12 [estradiol-t-BOC-Gly-Gly, 3-(t-butoxycarbonyl-glycinyl-glycinate)-estradiol]
- estradiol in aerosol ([6]; 325° C., 350° C., and 380° C., n=2, FIG. 17): approximately 94%
- unconverted prodrug in captured aerosol ([6]; 325° C., 350° C., and 380° C., n=2, FIG. 18): 1.5-2%
- thermal conversion of the precursor to estradiol ([6]; empirical studies): up to 95%

SMILES: CC(C)c1cccc(C(C)C)c1OC(=O)OC(C)(C)C [Propofol-t-BOC-Ester, O-(t-butoxycarbonyl)-propofol]
- aerosol purity of propofol as a function of vaporization temperature [7]: decrease with increasing vaporization temperature
